Data published in patent US6572880B2, “Methods and transdermal compositions for pain relief” (priority 1996, dated 2003).
“Also recorded” adds a separate entry of the source. Where a name gives a salt, the structure may show the parent alone.

How the values were obtained:
[1] = in vivo
Protocol: A dosage of 40 mg per day was self-administered by a patient by application to the skin, for a period of at least 1 hour.
Sertraline (Zoloft) gel was prepared, according to the procedures of example 9. A dosage of 100 mg per day was self-administered by a patient by application to the skin, for a period of at least 1 hour.
A dosage of 20 mg per day was self-administered by a patient by application to the skin, for a period of at least 1 hour.
Carbamazepine (Tegretol) gel was prepared, according to the procedures of example 4. A dosage of 400 mg per day was self-administered by a patient by application to the skin, for a period of at least 1 hour.
(§1) Carbamazepine (Tegretol) gel was prepared, according to the procedures of example 4. A dosage of 200 mg per day was self-administered by a patient by application to the skin, for a period of at least 1 hour.
Sertraline (Zoloft) gel was prepared, according to the procedures of example 9. A dosage of 50 mg per day was self-administered by a patient by application to the skin, for a period of at least 1 hour.
as §1
A dosage of 100 mg per day was selfadministered by a patient by application to the skin, for a period of at least 1 hour.
A dosage of 80-160 mg per day was self administered by a person by application to the skin, for a period of at least 1 hour. […] The dosage was then increased to 160 mg per day and administered by the same method.
A dosage of 80-160 mg/day was self administered by a person by application to the skin, for a period of at least 1 hour. […] The dosage was then increased to 160 mg per day and administered by the same method.
A dosage of 500-1000 mg was self administered by two male patients. Administration was by application to the skin, for a period of at least one hour.

[2] = cited from earlier work
[3] = patient-reported pain relief after transdermal application to site of pain; format: in vivo, human; settings: for overall assessment of pain relief when administered transdermally: conclusion from the patient results
Description: Compositions according the examples 45 through 47, 53, 55 were transdermally applied to numerous patients, for the purpose of treating pain including as described in other examples herein, with the results summarized in Table I below.

[4] = blood serum; cited from earlier work
[5] = skin irritation and side effects reported on transdermal administration; format: in vivo, human; settings: for overall assessment of side effects when administered transdermally: conclusion from the patient results
Protocol: Preferably, a gel preparation is applied to the skin at the site or sites of pain. Patients can be evaluated by means of a structured evaluation form, e.g., completed at a frequency of at least one time per week. Evaluation of patients are for the present symptoms as well as any side effects from currently administered medications. This makes it possible to note changes on an ongoing basis.
Patients in the examples above were evaluated by means of a structured evaluation form depicted in FIG. 1, which was completed at a frequency of at least one time per week for each patient receiving transdermal medication according to the present invention. The patients were evaluated both for all present psychiatric symptoms as well as any side effects from currently-administered medications.

[6] = summary of Table I, best result per patient

Question: With CC(NC(C)(C)C)C(=O)c1cccc(Cl)c1 (centres unmarked) [Buproprion] as the compound, how does the “transdermal absorption as judged from blood level” value (“transdermal absorption as judged” for short) [1] read?
Answer: poor or equivocal absorptions and results

Question: What about the “solubility in water” value [2] of the same compound?
Answer: highly soluble

Question: For CN(C)CCC=C1c2ccccc2CCc2ccccc21 [amitriptyline], which “overall assessment of pain relief when administered transdermally” value (shortened to “overall assessment of pain relief”) [3] is on record?
Answer: limited pain relief

Question: What does the source list for CN[C@H]1CC[C@@H](c2ccc(Cl)c(Cl)c2)c2ccccc21 [Sertraline hydrochloride]?
Answer: typical reference levels [4]: 30 to 200 ng/mL; transdermal absorption as judged from blood level [1]: do not appear to be absorbed well or reliably; solubility in ethanol [2]: sparingly soluble; solubility in isopropyl alcohol [2]: slightly soluble; solubility in water [2]: slightly soluble

Question: With CNCCC(Oc1ccc(C(F)(F)F)cc1)c1ccccc1 (centres unmarked) [Fluoxetine hydrochloride] as the compound, how does the typical reference levels [4] read?
Answer: 50 to 480 ng/mL

Question: For NCC1(CC(=O)O)CCCCC1 [Gabapentin], which “overall assessment of side effects when administered transdermally” value (“overall assessment of side effects” for short) [5] is on record?
Answer: free of side effects

Question: For NC(=O)N1c2ccccc2C=Cc2ccccc21 [Carbamazepine], which “overall assessment of pain relief” value [3] is on record?
Answer: positive effects

Question: And the “typical therapeutic levels / therapeutic reference range” value [4]?
Answer: 4 to 10 µg/mL

Question: And the “transdermal absorption as judged” value [1]?
Answer: good absorption

Question: What about the “overall assessment of side effects” value [5] of the same compound?
Answer: appears to cause a rash in at least some patients

Question: And the “solubility in alcohol and in acetone” value [2]?
Answer: soluble

Question: And the “solubility in water” value [2]?
Answer: practically insoluble

Question: For CCCC(CCC)C(=O)O [Valproic acid], which “typical therapeutic levels / therapeutic reference range” value [4] is on record?
Answer: 50 to 150 µg/mL

Question: What about the “transdermal absorption as judged” value [1] of the same compound?
Answer: do not appear to be absorbed well or reliably

Question: And the skin irritation ([5]; application to the skin)?
Answer: appears to cause skin irritation in some patients

Question: Which “overall assessment of pain relief” value [3] does the source give for COc1ccccc1OCC(O)CO (centres unmarked) [Guaifenesin] here?
Answer: benefit as an adjunctive treatment, of painful spasticity

Question: With Fc1ccc([C@@H]2CCNC[C@H]2COc2ccc3c(c2)OCO3)cc1 [Paroxetine hydrochloride] as the compound, how does the typical reference levels [4] read?
Answer: 49 ± 26 ng/mL

Question: For CN(C)CCC=C1c2ccccc2COc2ccccc21 [doxepin], which “overall assessment of pain relief” value [3] is on record?
Answer: effective pain relief medication

Question: What about the “overall assessment of pain relief” value ([3]; listed as Doxepin) of the same compound?
Answer: about three times the positive response rate; also recorded: substantially more effective than amitriptyline

Question: And the “percent reported pain relief: Major” value [3, 6]?
Answer: 23.1%

Question: What about the “percent reported pain relief: Mild” value [3, 6] of the same compound?
Answer: 7.7%

Question: And the “percent reported pain relief: Mild-moderate” value [3, 6]?
Answer: 7.7%

Question: What about the “percent reported pain relief: Total” value [3, 6] of the same compound?
Answer: 7.7%

Question: And the “percent reported pain relief: moderate” value [3, 6]?
Answer: 53.8%

Question: And the “overall assessment of side effects” value [5]?
Answer: substantially free of side effects
